{"source": "paper PMC11988454", "about": "“Discovery of synthetic small molecules targeting the central regulator of Salmonella pathogenicity” (Science Advances, 2025)", "molecular_target": "T1, HilD (Salmonella typhimurium, UniProt P0CL08)", "T1 construct": "His6-SUMO (N, cleaved yes); made in house; host or cells: E. coli C41(DE3)", "T1 sequence (P0CL08 whole entry, the tested form may be a part)": "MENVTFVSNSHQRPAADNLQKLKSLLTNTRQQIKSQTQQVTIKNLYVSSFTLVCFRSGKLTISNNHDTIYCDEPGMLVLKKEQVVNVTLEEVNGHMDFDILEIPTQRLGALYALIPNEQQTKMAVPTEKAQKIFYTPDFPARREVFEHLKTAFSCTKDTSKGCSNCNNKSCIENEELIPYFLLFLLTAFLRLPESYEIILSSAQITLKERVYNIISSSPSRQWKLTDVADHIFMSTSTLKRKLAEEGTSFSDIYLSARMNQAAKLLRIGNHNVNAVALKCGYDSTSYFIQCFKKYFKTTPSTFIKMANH", "test": "EMSA, binding to hilA promoter, HilD", "type": "biochemical, S. Typhimurium", "description": "EMSAs were performed similarly to as described previously ([39]) using a 62–base pair double-stranded (dsDNA) fragment of the hilA promoter, encompassing the A1 binding site ([82]). dsDNA fragments were generated by melting the complementary primers PhilA_A1_f / PhilA_A1_r (table S10) together in TE buffer [10 mM Tris (pH 8.0) and 1 mM EDTA] at 95°C for 10 min before slowly cooling to r.t. The forward primer was modified with a 5′-Cy5 fluorescent dye for detection. The protein (600 nM) was incubated with 50 nM labeled DNA in EMSA buffer [20 mM Tris (pH 8.0), 100 mM KCl, 100 μM EDTA, and 3% glycerol]. C26 was diluted first in DMSO and subsequently 1:100 into the protein-DNA sample. Samples were incubated at 37°C for 15 min, supplemented with diluted DNA loading dye, and separated on a 1.5-mm-thick, 6% (w/v) TBE polyacrylamide gel at 6°C at a constant voltage of 100 V. Gels were imaged using a ChemiDocMP imaging system (Bio-Rad).", "data": [{"smiles": "CN(CC(=O)NCc1ccc2c(c1)OCO2)Cc1ccc(Br)s1", "note": "[C26, N-(benzo[d][1,3]dioxol-5-ylmethyl)-2-{[(5-bromothiophen-2-yl)methyl](methyl)amino}acetamide]", "values": [{"measurement": "DNA binding activity of HilD (hilA promoter)", "value": "dose-dependent inhibition of the DNA binding activity"}]}]}
